Data reported in patent US20250295790A1, “LECTIN-TARGETING CONJUGATES” (Helmholtz-Zentrum für Infektionsforschung GmbH, priority 2021, published 2025).
Values joined by “and” are separate entries in the source; they are usually repeats but may differ in a detail not shown here. Equal values may be shown once.

Legend:
P. aeruginosa PA14 = experiment: Antibiotic susceptibility (MIC assay, broth microdilution); type: cell-based, Pseudomonas aeruginosa PA14
Experimental: Bacterial strains were streaked on LB-agar plates (1% agar) from glycerol stocks and incubated at 37° C. overnight. Colonies were picked from plate and dispersed in fresh MiGler-Hinton broth II (MHB II) to yield an OD600 of 0.08-0.13. This dispersion was diluted 1:100 in fresh MHB II, which was then used for the assay to achieve a final inoculum of 5×10^5 CFU/mL. 50 μL inoculum was mixed with 50 μL of the serial dilution in the corresponding well of the 96-well plate.
The different matrices were prepared under sterile conditions: (i) 5 mL human plasma and 1 mL sterile filtrate from an P. aeruginosa PA14 overnight culture in LB were mixed with 4 mL PBS; (ii) 1 mL sterile filtrate from an P. aeruginosa PA14 overnight culture was diluted in 9 mL PBS; (iii) PBS only and (iv) 5 mL human plasma and 1 mL LB were mixed with 4 mL PBS. 6 L of each compound dilution series was diluted in 115 L matrix (˜-1:20 dilution) in a 96-well format at time point T=−3 h or T=−10 min.
The plates prepared at T=−3 h were sealed with gas-permeable foil and incubated at 37° C. in a humid incubator. The other plates were kept at room temperature. At T=0 h, 50 µL of each well was mixed with 50 μL incoculum (as described above) in double-concentrated MHBII in a sterile 96-well plate.
The plates were sealed with gas-permeable foil and incubated at 37° C. for 18-20 h in a humid incubator. Growth inhibition was assessed by visual inspection and given MIC values are the lowest concentration of antibiotic at which there was no visible growth.

[1] = Microsomal stability assay, mouse S9 liver microsomes; type: in vitro ADME; conditions: for CLmic S9mouse: microsomal clearance, calculated from t1/2; for metabolic stability t1/2 MLM: mouse S9 liver fractions
Experimental: (§1) S9 liver microsomes (mouse and human, Thermo Fisher) were thawed slowly on ice. 20 mg/ml of microsomes, 2 μl of a 100 μM solution of every compound and 183 μl of 100 mM phosphate buffer were incubated 5 min at 37° C. in a water bath. Reactions were initiated using 10 μl of 20 mM NADPH (Roth). Samples were incubated in three replicates at 37° C. under gentle agitation at 150 rpm.
(§2) At 0, 5, 15, 30, and 60 min, reactions were terminated by the addition of 180 μl acetonitrile using a Mantis Formulatrix® dispenser. Samples were vortexed for 5 min using an Eppendorf MixMate® vortex mixer and centrifuged at 2270 ref for 20 min at 4° C. The supernatants were transferred to 96-well Greiner V-bottom plates, sealed and analysed according to the section HPLC-MS/MS analysis. Peak areas of the respective time point of the compounds were normalized to the peak area at time point 0 min. Then half-life was calculated using linear regression (Microsoft Excel®). Clint [μl/min/mg protein] was calculated using the following formula: […]
(§3) Cell samples as well as plasma stability, plasma protein binding and metabolic stability samples were analysed using an Agilent 1290 Infinity II coupled to an AB Sciex 6500plus mass spec-trometer. LC conditions were as follows: column: Agilent Zorbax Eclipse Plus C18, 50×2.1 mm, 1.8 m; temperature: 30° C.; injection volume: 5 l per sample; flow rate: 700 l/min. Solvents: A: water+0.1% formic acid; solvent B: 95% acetonitrile/5% H2O+0.1% formic acid. Gradient for 2, 36 and 37: 99% A from 0 min until 1 min; 99-0% A from 1.0 until 2.2 min, 0% A until 3.2 min. Gradient for naproxene: 99% A from 0 min until 1 min; 99-0% A from 1.0 until 5.5 min, 0% A until 6.0 min. Gradient for […] and […]: 99% A from 0 min until 1.0 min, 99-0% A from 1.0 until 3.5 min, 0% A until 3.7 min. Mass transitions for controls and compounds are depicted in table 5.

[2] = Microsomal stability assay, human S9 liver microsomes; type: in vitro ADME; conditions: for metabolic stability t1/2 HLM: human S9 liver fractions; for CLmic S9human: microsomal clearance, calculated from t1/2
Experimental: as §1, §2, §3

[3] = Plasma protein binding assay (RED), human plasma; type: in vitro ADME; conditions: human blood plasma
Experimental: Plasma protein binding was assessed using the rapid equilibrium device (RED) system from ThermoFisher. […] Dialysis buffer and plasma samples were added to the respective chambers according the manufacturer's protocol. The RED plate was sealed with a tape and incubated at 37° C. for 2 hours at 800 rpm on an Eppendorf MixMate® vortex-mixer. Then samples were withdrawn from the respective chambers. To 25 μl of each dialysis sample, 25 μl of plasma and to 25 μl of plasma sample, 25 l of dialysis buffer was added. […] Samples were incubated for 30 min on ice. Then samples were centrifuged at 4° C. at 2270 ref for 10 min. Supernatants were transferred to Greiner V-bottom 96-well plates and sealed with a tape. Then samples were subjected to HPLC-MS/MS analysis as described in the section ‘HPLC-MS/MS analysis’. The percentage of bound compound was calculated as follows: […]
Cell samples as well as plasma stability, plasma protein binding and metabolic stability samples were analysed using an Agilent 1290 Infinity II coupled to an AB Sciex 6500plus mass spec-trometer. LC conditions were as follows: column: Agilent Zorbax Eclipse Plus C18, 50×2.1 mm, 1.8 m; temperature: 30° C.; injection volume: 5 l per sample; flow rate: 700 l/min. Solvents: A: water+0.1% formic acid; solvent B: 95% acetonitrile/5% H2O+0.1% formic acid. […]

[4] = Matrix 1: PBS, pre-incubation 3 h
[5] = Matrix 1: PBS, pre-incubation <10 min
[6] = Matrix 2: 50% human blood plasma + 10% P. aeruginosa culture supernatant in PBS, pre-incubation 3 h
[7] = Matrix 2: 50% human blood plasma + 10% P. aeruginosa culture supernatant in PBS, pre-incubation <10 min
[8] = Matrix 3: 10% P. aeruginosa culture supernatant in PBS, pre-incubation 3 h
[9] = Matrix 3: 10% P. aeruginosa culture supernatant in PBS, pre-incubation <10 min
[10] = Matrix 4: 50% human blood plasma + 10% LB in PBS, pre-incubation 3 h
[11] = Matrix 4: 50% human blood plasma + 10% LB in PBS, pre-incubation <10 min

| SMILES | MIC (P. aeruginosa PA14; [4]) [µM] | MIC (P. aeruginosa PA14; [5]) [µM] | MIC (P. aeruginosa PA14; [6]) [µM] | MIC (P. aeruginosa PA14; [7]) [µM] | MIC (P. aeruginosa PA14; [8]) [µM] | MIC (P. aeruginosa PA14; [9]) [µM] | MIC (P. aeruginosa PA14; [10]) [µM] | MIC (P. aeruginosa PA14; [11]) [µM] | CLmic S9mouse [1] [μL/min/mg protein] | metabolic stability t1/2 MLM [1] [h] | metabolic stability t1/2 HLM [2] [h] | CLmic S9human [2] [μL/min/mg protein] | plasma protein binding human [3] |
| --- | --- | --- | --- | --- | --- | --- | --- | --- | --- | --- | --- | --- | --- |
| CC(C)CC(NC(=O)CNC(=O)C(C)NC(=O)c1ccc(S(=O)(=O)NCC2OC(C)C(O)C(O)C2O)cc1)C(=O)NC(C)C(=O)NC1CCN(c2cc3c(cc2F)c(=O)c(C(=O)O)cn3C2CC2)C1 (centres unmarked) [Compound 37] | >25 | >25 | 0.1 to 0.195 | 0.78 to 1.56 | 0.39 to 3.13 | 1.56 to 12.5 | 0.78 to 6.25 | ≥25 | 6.4 | 3.6 | 2.97 | 7.8 | 51% and 51.1 ± 13.3% |
| CC(C)C[C@H](NC(=O)CNC(=O)[C@H](C)NC(=O)c1ccc(S[C@@H]2O[C@H](CO)[C@H](O)[C@H](O)[C@H]2O)cc1)C(=O)N[C@@H](C)C(=O)N[C@H]1CCN(c2cc3c(cc2F)c(=O)c(C(=O)O)cn3C2CC2)C1 [Compound 36] | >25 | >25 | 0.1 | 0.195 to 0.39 | 0.195 to 3.13 | 0.78 to 3.13 | 0.78 to 6.25 | ≥25 | 14 | 1.67 | 1.55 | 15 | 97% and 97.2 ± 4.8% |
